Here are results for 19 compounds from ChEMBL document CHEMBL1149076, “Sulfamides as novel histone deacetylase inhibitors” (Bioorg Med Chem Lett, 2009).

Assay [1] concerns the target T1, Histone deacetylase 8 (Homo sapiens) (UniProt Q9BY41).
T1 sequence (whole entry): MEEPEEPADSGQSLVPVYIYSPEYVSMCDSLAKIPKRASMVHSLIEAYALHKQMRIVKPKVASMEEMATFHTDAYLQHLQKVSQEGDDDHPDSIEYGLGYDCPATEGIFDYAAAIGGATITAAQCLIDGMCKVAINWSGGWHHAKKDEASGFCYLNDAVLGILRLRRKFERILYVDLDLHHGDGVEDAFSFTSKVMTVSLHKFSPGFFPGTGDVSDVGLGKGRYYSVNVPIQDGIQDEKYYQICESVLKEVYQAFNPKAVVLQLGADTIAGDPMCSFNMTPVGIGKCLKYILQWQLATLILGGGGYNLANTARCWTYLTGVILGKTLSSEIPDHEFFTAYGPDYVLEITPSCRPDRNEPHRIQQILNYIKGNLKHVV
Kind of assay: Inhibition of human recombinant N-terminal histidine-tagged HDAC8 expressed in baculovirus by fluorimetry.

The target of assay [2] is T2, Histone deacetylase 1 (Homo sapiens, UniProt Q13547). Kind of assay: Inhibition of human recombinant C-terminal FLAG-tagged HDAC1 expressed in baculovirus by fluorimetry.
T2 sequence (Q13547 whole entry): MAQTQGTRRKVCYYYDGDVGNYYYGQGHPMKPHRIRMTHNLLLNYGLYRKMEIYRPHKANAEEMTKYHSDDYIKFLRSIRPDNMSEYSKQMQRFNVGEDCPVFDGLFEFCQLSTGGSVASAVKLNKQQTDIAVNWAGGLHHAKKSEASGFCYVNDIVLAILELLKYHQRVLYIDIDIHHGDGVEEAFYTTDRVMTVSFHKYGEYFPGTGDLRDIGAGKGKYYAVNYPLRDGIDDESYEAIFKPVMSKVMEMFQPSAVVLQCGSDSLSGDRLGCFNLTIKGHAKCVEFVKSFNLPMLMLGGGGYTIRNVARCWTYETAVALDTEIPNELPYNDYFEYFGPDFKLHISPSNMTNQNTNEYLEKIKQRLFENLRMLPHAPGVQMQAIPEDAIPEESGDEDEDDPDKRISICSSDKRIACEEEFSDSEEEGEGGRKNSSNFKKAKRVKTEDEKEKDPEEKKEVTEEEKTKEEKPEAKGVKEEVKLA
Assay [3] addresses Histone deacetylase 3 (Homo sapiens) (UniProt O15379). Nature of the assay: Inhibition of human recombinant C-terminal FLAG-tagged HDAC3 expressed in baculovirus by fluorimetry.
Assay [4] addresses T3, Protein deacetylase HDAC6 (Homo sapiens, UniProt Q9UBN7).
T3 sequence (Q9UBN7 whole entry): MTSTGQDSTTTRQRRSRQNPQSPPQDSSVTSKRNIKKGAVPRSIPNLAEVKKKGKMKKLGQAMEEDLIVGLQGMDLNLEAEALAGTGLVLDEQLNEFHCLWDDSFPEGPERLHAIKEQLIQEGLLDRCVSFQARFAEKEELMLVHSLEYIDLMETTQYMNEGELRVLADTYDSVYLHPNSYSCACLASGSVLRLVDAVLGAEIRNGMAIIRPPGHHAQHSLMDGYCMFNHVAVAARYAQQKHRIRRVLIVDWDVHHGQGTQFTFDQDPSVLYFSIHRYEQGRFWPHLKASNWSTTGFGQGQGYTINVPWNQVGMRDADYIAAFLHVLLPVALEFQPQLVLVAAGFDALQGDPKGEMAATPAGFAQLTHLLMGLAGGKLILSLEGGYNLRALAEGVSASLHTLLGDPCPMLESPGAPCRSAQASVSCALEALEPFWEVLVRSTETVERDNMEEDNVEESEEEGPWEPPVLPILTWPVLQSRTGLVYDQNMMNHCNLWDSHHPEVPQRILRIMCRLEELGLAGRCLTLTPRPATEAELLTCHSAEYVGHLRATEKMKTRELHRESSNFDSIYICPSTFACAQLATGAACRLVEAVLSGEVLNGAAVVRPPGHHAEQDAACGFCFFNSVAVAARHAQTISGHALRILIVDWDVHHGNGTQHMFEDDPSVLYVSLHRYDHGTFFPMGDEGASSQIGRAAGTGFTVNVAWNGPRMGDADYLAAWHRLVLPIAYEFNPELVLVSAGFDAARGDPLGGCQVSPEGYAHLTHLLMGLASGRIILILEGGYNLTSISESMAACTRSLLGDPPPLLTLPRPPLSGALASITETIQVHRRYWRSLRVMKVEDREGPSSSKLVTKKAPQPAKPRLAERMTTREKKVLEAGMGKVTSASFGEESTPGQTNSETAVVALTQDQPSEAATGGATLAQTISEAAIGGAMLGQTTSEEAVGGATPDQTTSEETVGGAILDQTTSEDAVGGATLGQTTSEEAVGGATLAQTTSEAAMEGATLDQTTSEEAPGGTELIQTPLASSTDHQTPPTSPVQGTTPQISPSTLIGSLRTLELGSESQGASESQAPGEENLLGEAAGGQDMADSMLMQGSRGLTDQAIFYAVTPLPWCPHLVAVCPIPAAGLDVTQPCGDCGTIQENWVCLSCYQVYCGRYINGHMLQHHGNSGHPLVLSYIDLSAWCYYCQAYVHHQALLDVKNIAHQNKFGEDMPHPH
Kind of assay: Inhibition of human recombinant N-terminal histidine-tagged HDAC6 expressed in baculovirus by fluorimetry.

Assay [5] addresses Histone deacetylase 4 (Homo sapiens) (UniProt P56524). Nature of the assay: Inhibition of human recombinant N-terminal histidine-tagged HDAC4 expressed in baculovirus by fluorimetry.
Assay [6] deals with Histone deacetylase 5 (Homo sapiens) (UniProt Q9UQL6). Nature of the assay: Inhibition of human recombinant N-terminal histidine-tagged HDAC5 expressed in baculovirus by fluorimetry.
Chain of Histone deacetylase 5 (Homo sapiens) (Q9UQL6 whole entry): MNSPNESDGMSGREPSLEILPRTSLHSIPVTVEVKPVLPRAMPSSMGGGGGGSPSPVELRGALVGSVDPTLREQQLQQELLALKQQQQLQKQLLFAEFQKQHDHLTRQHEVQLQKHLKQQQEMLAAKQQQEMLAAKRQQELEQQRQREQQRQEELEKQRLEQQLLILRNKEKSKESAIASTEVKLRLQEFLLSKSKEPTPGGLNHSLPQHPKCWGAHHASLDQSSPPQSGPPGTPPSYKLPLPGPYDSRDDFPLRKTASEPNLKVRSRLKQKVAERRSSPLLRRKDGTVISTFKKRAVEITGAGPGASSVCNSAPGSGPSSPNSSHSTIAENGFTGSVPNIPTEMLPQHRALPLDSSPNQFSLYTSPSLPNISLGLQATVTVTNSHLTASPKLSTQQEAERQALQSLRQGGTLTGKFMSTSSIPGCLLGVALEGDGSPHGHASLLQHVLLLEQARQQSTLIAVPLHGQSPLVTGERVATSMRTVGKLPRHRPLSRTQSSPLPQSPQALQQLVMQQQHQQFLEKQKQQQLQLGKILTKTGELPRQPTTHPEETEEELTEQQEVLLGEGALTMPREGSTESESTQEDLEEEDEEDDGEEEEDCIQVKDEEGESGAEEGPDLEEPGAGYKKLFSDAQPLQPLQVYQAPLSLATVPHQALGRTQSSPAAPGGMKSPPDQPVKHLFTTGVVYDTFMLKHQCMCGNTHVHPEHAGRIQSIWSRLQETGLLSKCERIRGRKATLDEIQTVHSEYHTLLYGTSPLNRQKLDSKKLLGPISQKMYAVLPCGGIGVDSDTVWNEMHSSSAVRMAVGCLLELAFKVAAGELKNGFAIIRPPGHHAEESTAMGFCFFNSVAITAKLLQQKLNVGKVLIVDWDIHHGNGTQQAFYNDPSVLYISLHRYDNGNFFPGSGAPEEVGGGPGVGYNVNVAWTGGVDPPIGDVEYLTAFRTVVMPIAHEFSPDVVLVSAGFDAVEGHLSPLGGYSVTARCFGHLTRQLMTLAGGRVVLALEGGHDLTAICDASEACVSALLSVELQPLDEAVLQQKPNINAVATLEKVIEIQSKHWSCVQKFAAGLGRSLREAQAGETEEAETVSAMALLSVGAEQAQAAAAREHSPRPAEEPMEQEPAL
The target of assay [7] is T4, Histone deacetylase 7 (Homo sapiens) (UniProt Q8WUI4).
T4 sequence (whole entry): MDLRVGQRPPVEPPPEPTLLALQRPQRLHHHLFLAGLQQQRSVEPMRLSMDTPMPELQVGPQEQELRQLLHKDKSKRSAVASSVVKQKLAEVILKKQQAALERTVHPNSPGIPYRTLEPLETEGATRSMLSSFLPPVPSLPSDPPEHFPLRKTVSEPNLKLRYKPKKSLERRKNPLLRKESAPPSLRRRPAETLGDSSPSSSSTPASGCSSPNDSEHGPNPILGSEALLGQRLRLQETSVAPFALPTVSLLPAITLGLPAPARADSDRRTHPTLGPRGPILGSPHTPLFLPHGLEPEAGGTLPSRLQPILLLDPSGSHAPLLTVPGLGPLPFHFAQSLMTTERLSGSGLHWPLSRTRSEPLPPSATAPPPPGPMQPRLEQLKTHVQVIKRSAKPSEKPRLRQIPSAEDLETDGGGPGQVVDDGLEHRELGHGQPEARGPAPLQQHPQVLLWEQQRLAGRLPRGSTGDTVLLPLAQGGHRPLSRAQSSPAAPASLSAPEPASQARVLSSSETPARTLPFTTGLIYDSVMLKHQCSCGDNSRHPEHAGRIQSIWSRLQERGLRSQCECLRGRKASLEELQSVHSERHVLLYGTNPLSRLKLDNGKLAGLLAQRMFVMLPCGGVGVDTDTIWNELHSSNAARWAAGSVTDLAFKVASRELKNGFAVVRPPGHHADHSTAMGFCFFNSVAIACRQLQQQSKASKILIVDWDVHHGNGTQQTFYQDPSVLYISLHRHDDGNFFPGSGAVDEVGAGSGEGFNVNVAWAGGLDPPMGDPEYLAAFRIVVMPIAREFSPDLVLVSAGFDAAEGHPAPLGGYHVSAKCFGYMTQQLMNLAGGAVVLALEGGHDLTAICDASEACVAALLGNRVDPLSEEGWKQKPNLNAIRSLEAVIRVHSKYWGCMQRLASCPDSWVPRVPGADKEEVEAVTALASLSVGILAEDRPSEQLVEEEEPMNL
Nature of the assay: Inhibition of human recombinant N-terminal histidine-tagged HDAC7 expressed in baculovirus by fluorimetry.

Assay [8] has as its system T-24. Nature of the assay: Induction of alpha tubulin acetylation in human T24 cells after 3 hrs by ELISA. The format is functional, cell-based. The note with it: T-24, 3 h. A general note: An ELISA detects its analyte on a solid surface through an enzyme-linked reagent.
For assay [9], the target named is T2, Histone deacetylase 1. Kind of assay: Inhibition of HDAC1 in human 293T cells after 16 hrs by fluorimetry. The format is cell-based.
Assay [10] deals with T-24. Nature of the assay: Induction of histone H3 acetylation in human T24 cells after 3 hrs by ELISA. The format is functional, cell-based. The note with it: T-24, 3 h.
Assay [11] concerns the target Histone deacetylase 2 (Homo sapiens) (UniProt Q92769). Kind of assay: Inhibition of human recombinant C-terminal FLAG-tagged HDAC2 expressed in baculovirus by fluorimetry.

The IC50 is the concentration at which inhibition is half-maximal. A word on the EC50: it is the midpoint of the concentration-response curve. A low value points to higher potency in that assay.

Calls of active or inactive are those of the source. No cut-off for these calls is given here.

Chain of Histone deacetylase 4 (Homo sapiens) (P56524 whole entry): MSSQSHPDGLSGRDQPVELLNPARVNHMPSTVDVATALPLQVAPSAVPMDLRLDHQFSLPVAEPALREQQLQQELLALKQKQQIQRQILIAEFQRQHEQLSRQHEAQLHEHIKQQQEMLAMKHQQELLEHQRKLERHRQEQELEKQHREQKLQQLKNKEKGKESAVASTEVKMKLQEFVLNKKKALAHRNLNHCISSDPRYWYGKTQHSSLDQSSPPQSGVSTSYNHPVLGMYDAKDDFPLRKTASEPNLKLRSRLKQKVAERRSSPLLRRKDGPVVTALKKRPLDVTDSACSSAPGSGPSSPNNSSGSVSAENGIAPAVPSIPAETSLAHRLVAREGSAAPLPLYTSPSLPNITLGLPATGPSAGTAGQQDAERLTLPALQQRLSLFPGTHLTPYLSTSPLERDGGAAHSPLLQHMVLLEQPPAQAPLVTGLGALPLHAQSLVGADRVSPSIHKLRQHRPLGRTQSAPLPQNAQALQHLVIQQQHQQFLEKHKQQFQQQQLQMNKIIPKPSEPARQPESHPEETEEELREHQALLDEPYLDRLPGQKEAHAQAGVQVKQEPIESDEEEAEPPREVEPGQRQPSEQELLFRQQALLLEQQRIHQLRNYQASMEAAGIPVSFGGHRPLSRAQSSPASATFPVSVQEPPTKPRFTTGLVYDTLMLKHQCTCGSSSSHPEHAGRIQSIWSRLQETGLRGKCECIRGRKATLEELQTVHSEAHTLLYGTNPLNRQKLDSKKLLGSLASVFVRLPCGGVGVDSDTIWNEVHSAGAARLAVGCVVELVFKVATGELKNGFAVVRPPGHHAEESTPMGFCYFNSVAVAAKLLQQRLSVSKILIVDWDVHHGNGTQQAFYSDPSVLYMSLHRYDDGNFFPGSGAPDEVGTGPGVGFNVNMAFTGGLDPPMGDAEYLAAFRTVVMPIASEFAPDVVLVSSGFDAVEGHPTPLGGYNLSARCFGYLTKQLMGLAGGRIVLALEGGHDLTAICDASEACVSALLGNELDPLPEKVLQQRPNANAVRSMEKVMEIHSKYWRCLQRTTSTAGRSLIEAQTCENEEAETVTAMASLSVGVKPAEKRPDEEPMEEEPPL
Chain of Histone deacetylase 3 (Homo sapiens) (O15379 whole entry): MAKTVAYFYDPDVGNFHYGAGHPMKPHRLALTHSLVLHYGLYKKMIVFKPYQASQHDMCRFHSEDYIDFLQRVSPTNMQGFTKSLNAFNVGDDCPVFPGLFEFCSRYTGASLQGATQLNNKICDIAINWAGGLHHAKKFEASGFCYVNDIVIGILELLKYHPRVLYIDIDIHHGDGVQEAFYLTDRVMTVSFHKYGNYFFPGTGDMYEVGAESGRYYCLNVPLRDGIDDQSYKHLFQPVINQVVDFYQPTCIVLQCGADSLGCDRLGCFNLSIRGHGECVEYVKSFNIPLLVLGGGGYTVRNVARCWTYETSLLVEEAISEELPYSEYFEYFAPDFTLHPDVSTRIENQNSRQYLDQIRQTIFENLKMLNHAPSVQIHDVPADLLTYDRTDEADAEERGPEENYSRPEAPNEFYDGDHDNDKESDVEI
Chain of Histone deacetylase 2 (Homo sapiens) (Q92769 whole entry): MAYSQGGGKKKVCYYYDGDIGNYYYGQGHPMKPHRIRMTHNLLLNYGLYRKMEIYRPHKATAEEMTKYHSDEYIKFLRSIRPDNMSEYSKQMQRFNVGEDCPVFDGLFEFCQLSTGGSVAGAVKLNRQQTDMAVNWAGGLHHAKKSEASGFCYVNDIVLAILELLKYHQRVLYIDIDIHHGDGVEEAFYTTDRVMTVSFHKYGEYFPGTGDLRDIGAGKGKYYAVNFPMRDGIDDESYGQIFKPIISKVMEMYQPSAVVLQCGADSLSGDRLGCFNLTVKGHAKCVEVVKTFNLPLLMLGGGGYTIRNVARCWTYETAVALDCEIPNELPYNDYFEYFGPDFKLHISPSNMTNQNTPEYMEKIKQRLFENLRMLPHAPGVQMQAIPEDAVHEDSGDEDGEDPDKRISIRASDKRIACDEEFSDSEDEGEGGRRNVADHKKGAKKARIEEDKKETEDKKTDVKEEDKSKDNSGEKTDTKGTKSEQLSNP

`CNS(=O)(=O)NCCCCCC(=O)Nc1cccc(-c2ccccc2)c1`: the result in assay [1], in assay [3], in assay [5], in assay [6] and in assay [7] was inactive. Also, the IC50 (at Histone deacetylase 1 [2]; in [4]) was greater than 10000 nM throughout.

Turning to `NS(=O)(=O)NCCCCCC(=O)Nc1cccc(-c2ccccc2)c1`, the outcome in assay [1], in assay [3], in [5], in assay [6] and in assay [7] was inactive. The IC50 on Histone deacetylase 1 [2] was greater than 10000 nM; in assay [4], 1100 nM.

Take `CN(C)S(=O)(=O)NCCCCCC(=O)Nc1cccc(-c2ccccc2)c1`: the outcome in assay [1], in [3], in assay [5], in assay [6] and in assay [7] was inactive. For the same compound, the IC50 (at Histone deacetylase 1 [2]; in assay [4]) was greater than 10000 nM each time.

With `NS(=O)(=O)NCCCCCC(=O)Nc1ccccc1`, the results for the IC50 (on Histone deacetylase 1 [2]; in [4]) were greater than 10000 nM and 1500 nM, respectively.

As for `NS(=O)(=O)OCCCCCC(=O)Nc1cccc(-c2ccccc2)c1`, the outcome in assay [1], in assay [3], in [5], in assay [6] and in [7] was inactive. The IC50 (at Histone deacetylase 1 [2]; in assay [4]) was greater than 10000 nM throughout.

Turning to `NS(=O)(=O)NCCCCCCC(=O)Nc1cccc(-c2ccccc2)c1`, the outcome in [1], in assay [3], in assay [5], in assay [6] and in assay [7] was inactive. For the same compound, the IC50 (on Histone deacetylase 1 [2]; in [4]) was greater than 10000 nM each time.

Turning to `NS(=O)(=O)NCCCCCC(=O)Nc1nc(-c2ccccc2)cs1`, the EC50 in the assay on T-24 [8] was 3500 nM; in the assay on T-24 [10] it was 20000 nM. Moreover, the IC50 is greater than 10000 nM at Histone deacetylase 1 [2], greater than 50000 nM on Histone deacetylase 1 [9] and 900 nM in assay [4]. Moreover, the outcome in assay [11] was inactive.

Turning to `COc1cc(NC(=O)CCCCCNS(N)(=O)=O)c2ncccc2c1`, the EC50 in the assay on T-24 [8] was 1000 nM; in the assay on T-24 [10], greater than 25000 nM. The values for the IC50 (at Histone deacetylase 1 [2]; against Histone deacetylase 1 [9]; in [4]) were greater than 10000 nM, greater than 50000 nM and 440 nM, respectively. In addition, the result in assay [11] was inactive.

`NS(=O)(=O)NCCCCCC(=O)Nc1cccc2cccnc12`: the IC50 on Histone deacetylase 1 [2] was greater than 10000 nM; in [4], 390 nM. Also, in assay [11], the outcome was inactive.

In the case of `NS(=O)(=O)NCCCCCC(=O)Nc1ccc2ncccc2c1`, the IC50 on Histone deacetylase 1 [2] was greater than 10000 nM; in assay [4], 490 nM. Moreover, in assay [11], the result was inactive.

As to `NS(=O)(=O)NCCCC[C@H](NC(=O)OCc1ccccc1)C(=O)Nc1nc(-c2ccccc2)cs1`, the figures for the EC50 in the assay on T-24 [8] and in the assay with T-24 [10] were 600 nM and 700 nM, respectively. The IC50 at Histone deacetylase 1 [2] stood at 160 nM; on Histone deacetylase 1 [9], 2300 nM; in assay [4], 180 nM.

Regarding `Nc1ccccc1NC(=O)CCCCCCC(=O)Nc1cccc(-c2ccccc2)c1`, the IC50 on Histone deacetylase 1 [2] was 490 nM; in assay [4], greater than 50000 nM.

As to `NS(=O)(=O)NC(=O)CCCCCC(=O)Nc1cccc(-c2ccccc2)c1`, the result in [1], in assay [3], in assay [5], in assay [6] and in [7] was inactive. Besides, the IC50 (on Histone deacetylase 1 [2]; in assay [4]) was greater than 10000 nM each time.

For `COc1cc(NC(=O)[C@H](CCCCNS(N)(=O)=O)NC(=O)OCc2ccccc2)c2ncccc2c1`, the EC50 in the assay on T-24 [8] was 200 nM; with T-24 [10], 350 nM. Also, the figures for the IC50 (at Histone deacetylase 1 [2]; against Histone deacetylase 1 [9]; in assay [4]) were 460 nM, 1800 nM and 60 nM, respectively.

As to `CN(CCCCCC(=O)Nc1cccc(-c2ccccc2)c1)S(N)(=O)=O`, the outcome in [1], in assay [3], in assay [5], in assay [6] and in [7] was inactive. Besides, the IC50 (at Histone deacetylase 1 [2]; in assay [4]) was greater than 10000 nM each time.

`NS(=O)(=O)NCCCCC(=O)Nc1cccc(-c2ccccc2)c1`: the outcome in assay [1], in assay [3], in [5], in [6] and in assay [7] was inactive. Besides, the IC50 (at Histone deacetylase 1 [2]; in assay [4]) was greater than 10000 nM in each case.

On to `CC(=O)NS(=O)(=O)NCCCCCC(=O)Nc1cccc(-c2ccccc2)c1`, for which the result in [1], in assay [3], in assay [5], in assay [6] and in assay [7] was inactive. Besides, the IC50 (at Histone deacetylase 1 [2]; in [4]) was greater than 10000 nM in each case.

As to `NS(=O)(=O)NCCCCCC(=O)Nc1cnc2ccccc2c1`, the IC50 on Histone deacetylase 1 [2] is greater than 10000 nM; in [4], 710 nM. Moreover, the outcome in [11] was inactive.

`O=C(CCCCCCC(=O)Nc1cccc(-c2ccccc2)c1)NO`: the IC50 (at Histone deacetylase 1 [2]; in assay [4]) was 9 nM throughout.
